Data set [1] is described as follows: Protonation constants by pH-potentiometric / UV–Vis spectrophotometric titration. The data set is classed as physicochemical. To be noted: pH 7.4, CL = 10^−5 M.
Protocol: As concerns the metal chelation studies, potassium hydrogen phthalate (C8H5KO4, p.a.) was acquired from BDH, whereas dimethylsulfoxide (DMSO, dried, p.a.) and potassium chloride (KCl, p.a.) were supplied by Sigma-Aldrich. Aqueous solutions of metal ions were prepared starting from 1000 ppm standards (Titrisol, Sigma-Aldrich), to obtain solutions FeCl3 0.018 M and CuCl2 0.015 M. The metal content of solutions was evaluated by atomic absorption. Iron stock solution was prepared with an excess of acid chloride to avoid hydrolysis and its concentration in HCl was determined by the usual standard-addition method using 0.1M HCl (Titrisol). The 0.1M HCl solution, used in calibration of the glass electrode and in spectrophotometric titrations, was prepared from a Titrisol ampoule. […]
The spectrophotometric measurements were carried out in a 250–450 nm wavelength range at pH ca. 2.5–11.8. Under the stated experimental conditions, the pKw value (14.27) was determined and subsequently used in the computations. […] The metal hydrolysis model was determined under the defined experimental conditions (I = 0.1 M KCl, 20% w/w DMSO/H2O, T = 25.0 ± 0.1 °C) and the following values of stability constants were included in the fitting of experimental data towards the equilibrium models related to the Fe^3+/L and Cu^2+/L systems: log β (FeH-2) = −6.78, log β (FeH-3) = −10.78; log β (Cu2H-2) = −9.94. […]
The target in a further data set is Aβ1–42 peptide (Homo sapiens, UniProt P05067). Description: Inhibition of Cu^2+-induced Aβ1–42 aggregation, Thioflavin T fluorescence assay. To be noted: compounds 80 μM, with copper 40 μM; ThT fluorescence; mean of two independent measurements in duplicate; read-out: Inhibition of Aβ1–42 Aggregation (%) Cu-Induced Aβ Aggr. More on the design: Amyloid-β peptide (1–42) was purchased from GeneCust; purchased GeneCust. It counts as biochemical. The procedure:
The studied compounds (1a–e) were tested in vitro to evaluate their activity as inhibitors of Aβ1-42 peptide aggregation, through the Thioflavin T (ThT) fluorescence assay. This method is based on the strong ability of the dye ThT to bind β-amyloid fibrils and oligomers through ionic and hydrophobic interactions, while its interaction with β-amyloid monomers is extremely weak. The intercalation of compounds in the β-sheet structure of amyloid protein may prevent fibrils aggregation and ThT binding, and it is evaluated by fluorimetry. The fluorescence emission measurements were performed after overnight incubation of the self-mediated or Cu^2+-induced Aβ fibril aggregates with the studied compounds.
The inhibition of β-amyloid (Aβ) aggregation was studied through the Th-T fluorescence assay, which was performed using a Varian Cary Eclipse fluorimeter at the following wavelengths: excitation (446 nm) and emission (485 nm). Amyloid-β peptide (1–42) was purchased from GeneCust as lyophilized powder stored at −20 °C.
The method used is based on thioflavin T (ThT) fluorescence emission, which depends on the interaction of this dye with Aβ fibrils. The assay is performed with the Aβ1–42 peptide sample, which was previously prepared by solubilization of its lyophilized powder in 1,1,1,3,3,3–hexafluoro-2-propanol (HFIP), an organic solvent useful to solubilize and monomerize the β-sheets protein aggregates. After 24 h, the solution was divided into Eppendorf tubes kept in ice, and then, HFIP was left to evaporate overnight (T = 25 °C). The resultant films were stored in the freezer. […] Compounds were dissolved in MeOH (1 mg/mL) and diluted with phosphate buffer to reach a ligand stock solution of 480 μM. Two different types of experiments were prepared in a final volume of 60 μL: control ligand assays (Aβ1–42 aggregation in the absence of inhibitor) and ligand assays (effect of ligand on Aβ1–42 aggregation). For each experiment, a blank sample without Aβ1–42 was used to monitor the effect of the compounds in fluorescence. To study the inhibition of aggregation in the presence of Cu^2+, which is known to promote it, an intermediate stock solution of CuCl2 in phosphate buffer (240 µM) was prepared. Then, it was aliquoted to obtain a final concentration of 40 µM in the samples. All samples were incubated in a water bath for 24 h at 37 °C. Then, 180 µL of ThT (5 µM) in glycine-NaOH buffer (50 mM, pH = 8.5) is added to each solution and 200 µL of it is placed in a 96-well plate (BD Falcon) to be read with the fluorimeter. After 5 min of incubation with ThT, fluorescence was measured at 446 nm (ʎ excitation) and 485 nm (ʎ emission).

Data set [2] can be described thus: Cu^2+ complexation, potentiometric / spectrophotometric titration. It counts as physicochemical. To be noted: for log β (CumHhLl), species (1–12) / log β (CumHhLl), species (101): UV–Vis (1a, 1d); for pM (Cu^2+), pM = −log [M]: pH 7.4, CL/CM = 10, CM = 10^−6 M. From the text:
The chelating ability of FA and of selected compounds 1a and 1d was studied by using the same experimental techniques (potentiometry, UV–Vis spectrophotometry) and experimental medium used for the titration of the ligand alone (20% w/w DMSO/water).
Alterations in the deprotonation profiles of the ligand titration curves due to the presence of the metal ions are evident in Figure 2, since the curves for the M/L systems appear well below that of FA for a > −1 (M = Fe) or a > 0 (M = Cu). This evidence supports the formation of metal complexes with the deprotonated (L^−) and mono-protonated (HL) forms of the ligand, whose stability order (Fe > Cu) follows the expected trend. Equilibrium models obtained from the fitting analysis of the potentiometric curves (M = Fe, Cu) and the UV–Vis spectral data (M = Fe, Cu) are reported in Table 2.
Both compounds 1a and 1d have similar chelating capacities towards iron and copper, which are also analogous to those of FA.
As concerns the metal chelation studies, potassium hydrogen phthalate (C8H5KO4, p.a.) was acquired from BDH, whereas dimethylsulfoxide (DMSO, dried, p.a.) and potassium chloride (KCl, p.a.) were supplied by Sigma-Aldrich. Aqueous solutions of metal ions were prepared starting from 1000 ppm standards (Titrisol, Sigma-Aldrich), to obtain solutions FeCl3 0.018 M and CuCl2 0.015 M. The metal content of solutions was evaluated by atomic absorption. Iron stock solution was prepared with an excess of acid chloride to avoid hydrolysis and its concentration in HCl was determined by the usual standard-addition method using 0.1M HCl (Titrisol). The 0.1M HCl solution, used in calibration of the glass electrode and in spectrophotometric titrations, was prepared from a Titrisol ampoule. The titrant was prepared from carbonate free commercial concentrate (Titrisol, KOH 0.1 M ampoules). The KOH solution was standardized by titration with a solution of potassium hydrogen phthalate using Gran’s method and it was rejected when the percentage of carbonate was greater than 0.5% of the total amount of base. The potentiometric studies were performed with an automated potentiometric apparatus controlled by PASAT program and containing a Crison micropH 2002 millivoltmeter, a Crison microBu 2031 burette and a Haake thermostatic bath (T = 25.0 ± 0.1 °C). The spectrophotometric titrations were carried out with a Perkin-Elmer Lambda 35 spectrophotometer.
Both glass and Ag/AgCl reference electrodes were previously conditioned in different DMSO/H2O mixtures of increasing DMSO % concentration and the response of the glass electrode was evaluated by strong acid–strong base (HCl/KOH) calibrations with the determination of the Nernst parameters by Gran’s method. […] The spectrophotometric measurements were carried out in a 250–450 nm wavelength range at pH ca. 2.5–11.8. Under the stated experimental conditions, the pKw value (14.27) was determined and subsequently used in the computations. The stepwise protonation constants of the ligands, Ki = [HiL]/[Hi-1L][H], and the overall metal complex stability constants, β (MmHhLl) = [MmHhLl]/[M]^m[H]^h[L]^l, were calculated by fitting the pH-potentiometric and spectrophotometric data with, respectively, the Hyperquad 2008 [41] and Psequad programs. The metal hydrolysis model was determined under the defined experimental conditions (I = 0.1 M KCl, 20% w/w DMSO/H2O, T = 25.0 ± 0.1 °C) and the following values of stability constants were included in the fitting of experimental data towards the equilibrium models related to the Fe^3+/L and Cu^2+/L systems: log β (FeH-2) = −6.78, log β (FeH-3) = −10.78; log β (Cu2H-2) = −9.94. The species distribution curves were obtained with the Hyss program.

The mark [3] stands for this setting: T = 25.0 ± 0.1 °C, I = 0.1 M KCl, 20% w/w DMSO/water, pH-potentiometric (FA).

A word on the inhibition: it is the relative decrease from the control value, in per cent. As a reminder, the melting point is the temperature of the solid-liquid transition.

The structures appear in SMILES notation.

Sequence of Aβ1–42 peptide (P05067 672-713): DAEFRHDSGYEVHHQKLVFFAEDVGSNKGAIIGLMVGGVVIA

The compound `COc1cc(/C=C/C(=O)NOCc2ccccc2OC)ccc1O` [Compound 1a, (E)-3-(4-hydroxy-3-methoxyphenyl)-N-((2-methoxybenzyl)oxy)acrylamide] returned a melting point of 58 °C. The “predominant species neutral HL at physiological conditions” value in data set [1] was determined as 96%. Also, on Aβ1–42 peptide, the inhibition at 80 µM is 79.6%. In addition, the “log β (CumHhLl), species (1–21)” value in data set [2] (T = 25.0 ± 0.1 °C, I = 0.1 M KCl, 20% w/w DMSO/water, UV–Vis spectrophotometric data) is −13.16(7). In data set [2] (setting [3]), the “log β (CumHhLl), species (1–12)” value is recorded as 1.12(5) and the “log β (CumHhLl), species (101)” value is 6.27(7). The “pM (Cu^2+), pM = −log [M]” value in data set [2] came out at 6.3.

The compound `COc1cc(/C=C/C(=O)NOCc2cccc(Cl)c2)ccc1O` [Compound 1d, (E)-N-((3-chlorobenzyl)oxy)-3-(4-hydroxy-3-methoxyphenyl)acrylamide] registered a melting point of 47 to 48 °C. Besides, in data set [1], the “predominant species neutral HL at physiological conditions” value is given as 97%. Besides, the inhibition at 80 µM on Aβ1–42 peptide stood at 76.1%. Besides, in data set [2] (setting [3]), the “log β (CumHhLl), species (1–12)” value is reported as 2.20(8) and the “log β (CumHhLl), species (101)” value is 7.49(7). The “log β (CumHhLl), species (102)” value in data set [2] (T = 25.0 ± 0.1 °C, I = 0.1 M KCl, 20% w/w DMSO/water, pH-potentiometric (FA), UV–Vis (1d)) was 12.14(7). For the same compound, the “pM (Cu^2+), pM = −log [M]” value in data set [2] is 7.0.

The record behind these values is publication PMC8512147, “Multifunctional Small Molecules as Potential Anti-Alzheimer’s Disease Agents” (Molecules, 2021).
